According to PMC3914206:

Tests used:
panel of 442 kinases [1] = biological target: T1, panel of 442 kinases (Homo sapiens, UniProt Q96BR1); type: binding; conditions: kinase SGK3; compound concentration 10 µM
T1 construct: purchased KINOMEscan
T1 sequence (Q96BR1 1-496): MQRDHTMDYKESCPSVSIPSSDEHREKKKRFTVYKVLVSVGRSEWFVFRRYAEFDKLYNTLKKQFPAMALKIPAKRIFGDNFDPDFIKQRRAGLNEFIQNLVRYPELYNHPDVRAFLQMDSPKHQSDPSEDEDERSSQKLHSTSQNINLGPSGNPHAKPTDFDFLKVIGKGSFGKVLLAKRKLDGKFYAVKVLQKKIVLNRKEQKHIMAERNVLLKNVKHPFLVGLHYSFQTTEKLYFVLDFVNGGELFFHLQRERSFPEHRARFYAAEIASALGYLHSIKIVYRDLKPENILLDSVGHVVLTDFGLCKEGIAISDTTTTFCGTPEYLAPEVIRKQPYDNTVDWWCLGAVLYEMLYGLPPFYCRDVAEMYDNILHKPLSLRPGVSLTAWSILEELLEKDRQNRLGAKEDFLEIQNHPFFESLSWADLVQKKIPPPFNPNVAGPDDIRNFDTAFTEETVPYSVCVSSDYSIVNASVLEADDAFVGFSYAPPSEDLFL
Description: (§1) We assessed the selectivity of members of this scaffold using the KINOMEscan methodology across a near comprehensive panel of 442 kinases [[18,27]].

panel of 442 kinases [2] = biological target: T2, panel of 442 kinases (Homo sapiens, UniProt P36888, R834Q); type: binding; conditions: Compound Concentration 10 µM
T2 construct: purchased KINOMEscan
T2 sequence (P36888 27-993 R834Q): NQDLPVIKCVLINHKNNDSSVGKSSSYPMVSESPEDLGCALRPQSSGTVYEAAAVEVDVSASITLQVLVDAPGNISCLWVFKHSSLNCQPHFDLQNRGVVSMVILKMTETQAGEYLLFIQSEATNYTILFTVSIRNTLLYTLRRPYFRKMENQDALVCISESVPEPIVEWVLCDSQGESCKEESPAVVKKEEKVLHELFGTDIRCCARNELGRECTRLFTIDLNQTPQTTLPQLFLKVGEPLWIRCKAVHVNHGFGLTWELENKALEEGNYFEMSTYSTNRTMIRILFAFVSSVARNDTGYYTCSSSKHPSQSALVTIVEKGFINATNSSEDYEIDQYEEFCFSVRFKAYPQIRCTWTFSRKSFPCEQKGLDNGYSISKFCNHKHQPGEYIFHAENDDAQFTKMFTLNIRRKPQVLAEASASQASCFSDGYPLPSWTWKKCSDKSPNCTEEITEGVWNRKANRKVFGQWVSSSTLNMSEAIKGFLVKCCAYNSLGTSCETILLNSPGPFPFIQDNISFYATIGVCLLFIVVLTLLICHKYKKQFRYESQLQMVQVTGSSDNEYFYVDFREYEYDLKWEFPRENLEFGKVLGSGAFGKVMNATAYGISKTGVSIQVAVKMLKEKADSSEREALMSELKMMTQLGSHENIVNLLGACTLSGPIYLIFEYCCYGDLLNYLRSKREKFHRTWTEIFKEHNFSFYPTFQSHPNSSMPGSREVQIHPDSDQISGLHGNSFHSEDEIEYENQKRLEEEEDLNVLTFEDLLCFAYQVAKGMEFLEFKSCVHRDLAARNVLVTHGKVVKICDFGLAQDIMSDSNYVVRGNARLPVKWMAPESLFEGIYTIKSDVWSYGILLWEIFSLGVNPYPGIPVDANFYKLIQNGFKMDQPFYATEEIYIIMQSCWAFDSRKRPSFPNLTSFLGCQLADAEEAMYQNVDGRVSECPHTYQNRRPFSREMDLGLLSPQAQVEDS
Description: as §1

With `COc1cc(C(=O)N2CCC(N3CCN(C)CC3)CC2)ccc1Nc1ncc2c(n1)N(C)c1ccccc1C(=O)N2C` [15 (LRRK2-IN-1)] the “% Ctrl, SGK3” value (panel of 442 kinases [1]) was 95 % Ctrl and the “KINOMEscan: FLT3(R834Q)” value (panel of 442 kinases [2]) was 100.

In the case of `COc1cc(C(=O)N2CCC(N3CCN(C)CC3)CC2)ccc1Nc1ncc2c(n1)N1CCc3cccc(c31)C(=O)N2C` [Compound 24], the “% Ctrl, SGK3” value (panel of 442 kinases [1]) is reported as 100 % Ctrl and the “KINOMEscan: FLT3(R834Q)” value (panel of 442 kinases [2]) is reported as 100.

`COc1cc(C(=O)N2CCC(N3CCN(C)CC3)CC2)ccc1Nc1ncc2c(n1)N(C1CCCC1)c1ccccc1C(=O)N2C` [Compound 25, 11-cyclopentyl-2-((2-methoxy-4-(4-(4-methylpiperazin-1-yl)piperidine-1-carbonyl)phenyl)amino)-5-methyl-5H-benzo[e]pyrimido[5,4-b][1,4]diazepin-6(11H)-one] was tested, and the “% Ctrl, SGK3” value (panel of 442 kinases [1]) was 100 % Ctrl and the “KINOMEscan: FLT3(R834Q)” value (panel of 442 kinases [2]) was 100.

For `CCOc1cc(C(=O)N2CCC(N3CCN(C)CC3)CC2)ccc1Nc1ncc2c(n1)N(C1CCCC1)c1ccccc1C(=O)N2C` [Compound 26], the “% Ctrl, SGK3” value (panel of 442 kinases [1]) was 83 % Ctrl and the “KINOMEscan: FLT3(R834Q)” value (panel of 442 kinases [2]) was 100.
